For one assay, the target named is T1, preformed Aβ42 fibrils (Homo sapiens, UniProt P05067).
T1 construct: The Aβ42 peptide was produced by Bachem AG; purchased Bachem AG
The experiment in a line: Destabilization assay (ThT fluorescence): destabilization of preformed Aβ42 fibrils. In kind it is biochemical. As to conditions: for EC50: fibrils preformed from 25 μM Aβ42 (24 h, 37 °C), further 24 h at 37 °C with compound, ThT fluorescence. On the procedure: The destabilization assay used to evaluate the activities of the polyphenolic compounds towards the destabilization of preformed fibrils was performed as described by Ono et al.. Briefly, a reaction mixture containing 25 μM Aβ42 and 50 mM phosphate buffer (pH 7.5 and 100 mM NaCl) was incubated on a PCR system for 24 h at 37 °C to form fibrils. All of the test compounds (i.e., C, EC, GC, EGC, P-B1, and P-B3) were initially dissolved in DMSO at concentrations of 30, 100 and 300 μM, and 1 and 3 mM, before being added to the reaction mixture to give final concentrations of 0.3, 1.0, 3.0, 10, and 30 μM, respectively. The resulting mixtures were continued the incubation of 24 h at 37 °C, and then subjected to fluorescent measurements as in the polymerization assay.
(§1) The fluorescence measurements were recorded on an Envision® 2104 Multilabel Reader (Perkin Elmer, Waltham, MA, USA), with optimized excitation and emission wavelengths of 430 (BW 24 nm) and 470 nm (BW 24 nm), respectively. The reaction mixture contained 5 μM ThT and 50 mM of glycine-NaOH buffer (pH 8.5). The IC50 and EC50 values were calculated using the GraphPad Prism 5 software. All results were expressed as the mean ± SEM, and statistical analyses were performed using the Student’s t test.

For assay [1], the target named is T2, Aβ42 (Homo sapiens, UniProt P05067).
T2 construct: The Aβ42 peptide was produced by Bachem AG; purchased Bachem AG
Description: Polymerization assay (ThT fluorescence): inhibition of Aβ42 aggregation. The settings on record: for IC50: 25 μM Aβ42, 1% DMSO, 50 mM phosphate buffer pH 7.5, 100 mM NaCl, ThT fluorescence. It is filed as biochemical. On the procedure: The polymerization assay was performed as previously described in the literature. For single compounds, the reaction mixture contained 25 μM Aβ42, 0.3, 1.0, 3.0, 10, or 30 μM C, EC, GC, EGC, P-B1, or P-B3, 1% DMSO, 50 mM phosphate buffer (pH 7.5) and 100 mM NaCl. Prior to being tested, the compounds were dissolved in DMSO at concentrations of 30, 100 and 300 μM, and 1.0 and 3.0 mM, and then added to the reaction mixture to final concentrations 0.3, 1.0, 3.0, 10, and 30 μM, respectively. For the extract and its fractions, different concentration sequences were incubated in the reaction mixture. With the exception of one sequence (i.e., 3.0, 10, 30, 100 and 200 μg/mL) for Fr. Ts and another (i.e., 0.3, 1.0, 3.0, 10, 30 μg/mL) for Fr. Ps, one concentration sequence (i.e., 1.0, 3.0, 10, 30 and 100 μg/mL) was used for the extract and all of the other fractions.
as §1

The target in assay [2] is T2, Aβ42. More on the design: method as in PMID 24727418. The settings on record: earlier work of the same authors; cited from earlier work.

T2 sequence (P05067 672-713 limits assumed, species assumed): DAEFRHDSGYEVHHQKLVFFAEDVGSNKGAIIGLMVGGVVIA
T1 sequence (P05067 672-713 limits assumed, species assumed): as above

In the case of `Oc1cc(O)c2c(c1)O[C@H](c1ccc(O)c(O)c1)[C@@H](O)[C@@H]2c1c(O)cc(O)c2c1O[C@H](c1ccc(O)c(O)c1)[C@@H](O)C2` [P-B3, procyanidin B3], the concentration giving a half-maximal response (EC50) on preformed Aβ42 fibrils is 5.12 ± 0.75 µM. The same compound had an IC50 against Aβ42 [1] of 3.54 ± 0.39 µM.
The matching figures for `Oc1cc(O)c2c(c1)O[C@H](c1ccc(O)c(O)c1)[C@H](O)C2` [EC, (−)-epicatechin]: 5.99 ± 0.6 µM and 9.44 ± 0.24 µM.
Consider `Oc1cc(O)c2c(c1)O[C@H](c1ccc(O)c(O)c1)[C@@H](O)C2` [C, (+)-catechin], for which the “activity towards Aβ42 aggregation in vitro (in words)” value on Aβ42 [2] is reported as “very little activity”. Further, the EC50 on preformed Aβ42 fibrils turned out to be 5.27 ± 1.26 µM. Further, it took 14.9 ± 3.42 µM to reach half-maximal inhibition against Aβ42 [1] (IC50).
On to `C[C@@H]1C(=O)O[C@H]2C[C@@]34[C@H]5C[C@@H](C(C)(C)C)[C@]36[C@@H](OC(=O)[C@@H]6O)O[C@@]4(C(=O)O5)[C@]21O` [ginkgolides A, ginkgolide A], for which, on Aβ42 [2], the “activity towards Aβ42 aggregation in vitro (in words)” value was “very little activity”.
Regarding `Oc1cc(O)c2c(c1)O[C@H](c1cc(O)c(O)c(O)c1)[C@@H](O)C2` [GC, (−)-gallocatechin], at preformed Aβ42 fibrils, the EC50 came to 15.7 ± 3.19 µM. In addition, the “ability to destabilize fibrils (in words)” value at preformed Aβ42 fibrils (this paper's destabilization assay) was “least influence”. On Aβ42 [1], this compound returned an IC50 of 17.5 ± 0.57 µM. Moreover, the “inhibitory activity towards Aβ42 aggregation (in words)” value on Aβ42 [1] (this paper's polymerization assay) is on record as “least influence”.
As for `Oc1cc(O)c2c(c1)O[C@H](c1ccc(O)c(O)c1)[C@H](O)[C@H]2c1c(O)cc(O)c2c1O[C@H](c1ccc(O)c(O)c1)[C@@H](O)C2` [P-B1, Procyanidin B1], the EC50 on preformed Aβ42 fibrils was 3.51 ± 0.32 µM. In addition, at Aβ42 [1], the midpoint of inhibition, the IC50, lay at 3.28 ± 0.46 µM.
Turning to `CC(C)(C)[C@]1(O)CC2OC(=O)CC23C(=O)OC2OC(=O)[C@H](O)C231` (stereo partly drawn) [bilobalide], on Aβ42 [2], the “activity towards Aβ42 aggregation in vitro (in words)” value is “very little activity”.
Consider `Oc1cc(O)c2c(c1)O[C@H](c1cc(O)c(O)c(O)c1)[C@H](O)C2` [EGC, (−)-epigallocatechin], for which the EC50 on preformed Aβ42 fibrils was 7.76 ± 0.94 µM. The compound also yielded an IC50 against Aβ42 [1] of 8.51 ± 0.96 µM.
ginkgolide B: on Aβ42 [2], the “activity towards Aβ42 aggregation in vitro (in words)” value is “very little activity”.

As a reminder, the EC50 is the concentration at which the effect is half-maximal. In general, IC50 refers to the point on the concentration scale where inhibition reaches its midpoint. The low end stands for inhibition by little substance, the high end for a need for much substance.

The values are drawn from publication PMC6271394, “Catechins and Procyanidins of Ginkgo biloba Show Potent Activities towards the Inhibition of β-Amyloid Peptide Aggregation and Destabilization of Preformed Fibrils” (Molecules, 2014).
